Source: patent US20220184231A1, “CLOSED-ENDED DNA (CEDNA) AND IMMUNE MODULATING COMPOUNDS” (Generation Bio Co., priority 2019, published 2022)
Entries after “also recorded” stand apart in the source; their conditions may differ.

Experiments:
Assay type in all cases: in vivo
[1] = tested on: luciferase transgene expression from ceDNA vector; experiment: In-life IVIS imaging of luciferase expression from ceDNA vector; settings: male CD-1 mice, LNP-ceDNA 0.5 mg/kg i.v., day 4 and day 7, compared with ceDNA/polyC group
Description: A ceDNA vector encoding luciferase as the transgene (e.g., SEQ ID NO: 56), with a wild-type AAV2 left ITR and a mutant right ITR and a hAAT promoter, methylated to eliminate free CpG, was used. The ceDNA vector was prepared as described above. […] Four replicates were included in each sample group. Body weights were recorded on days 0, 1, 2, 3, 7, 14, 21 and 28. In-life imaging was performed on days 4, 7, 14, 21, and 28 using an in vivo imaging system (IVIS). For the imaging, each mouse was injected with luciferin at 150 mg/kg via intraperitoneal injection at 2.5 mL/kg. After 15 minutes, each mouse was anaesthetized and imaged.

TNF-alpha = experiment: Cytokine analysis of serum samples after administration: TNF-alpha; settings: male CD-1 mice, LNP-ceDNA 0.5 mg/kg i.v.; relative to ceDNA treatment alone
Description: (§1) FIGS. 6A, 6B and 6C provide graphs showing data from the experiments described in Example 6.

RANTES = experiment: Cytokine analysis of serum samples after administration: RANTES; settings: male CD-1 mice, LNP-ceDNA 0.5 mg/kg i.v.; relative to ceDNA treatment alone
Description: as §1

IL-6 = experiment: Cytokine analysis of serum samples after administration: IL-6; settings: male CD-1 mice, LNP-ceDNA 0.5 mg/kg i.v.; relative to ceDNA treatment alone
Description: as §1

cytokines = experiment: Cytokine analysis of serum samples after administration: other cytokines; settings: male CD-1 mice, LNP-ceDNA 0.5 mg/kg i.v.; cytokines other than IL-6, TNF-alpha, RANTES
Description: as §1

Substance: dexamethasone palmitate
- total flux (luciferase expression from the ceDNA vector) [1]: no impact
- induction of TNF-alpha (serum level) (TNF-alpha): significantly less induction; also recorded: significantly reduced
- induction of RANTES (serum level) (RANTES): significantly less induction; also recorded: significantly reduced
- induction of IL-6 (serum level) (IL-6): significantly less induction; also recorded: significantly reduced
- levels of other cytokines (serum) (cytokines): not impacting
